Experimental data: patent US20060264460A1 (Wyeth, priority 2005, published 2006)

These molecules were tested against T1, human Cot/Tpl2 kinase (Homo sapiens, UniProt P41279) (assay: Tpl2/Cot kinase assay: GST-MEK1 phosphorylation detected by ELISA (DELFIA Eu)). Conditions: 0.4 nM Tpl2, 35 nM GST-MEK1, 50 uM ATP, 1 h at 30° C.
T1 construct: human Cot/Tpl2 kinase construct encoding residues 30-398; 6His (N); made in house; host or cells: Sf9 insect cells, baculovirus system (BD Biosciences)
Format: biochemical
Procedure, shortened: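 Substrate phosphorylation (GST-MEK1 Ser217/221) quantified by DELFIA europium ELISA, yielding IC50 values. Reaction: 1 h at 30° C, pH 7.2 MOPS buffer, 50 uM ATP, 35 nM GST-MEK1, 0.4 nM monomeric His-Tpl2 purified from Sf9 cells, compounds at 1% final DMSO; stopped with EDTA.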

T1 sequence (P41279 30-398): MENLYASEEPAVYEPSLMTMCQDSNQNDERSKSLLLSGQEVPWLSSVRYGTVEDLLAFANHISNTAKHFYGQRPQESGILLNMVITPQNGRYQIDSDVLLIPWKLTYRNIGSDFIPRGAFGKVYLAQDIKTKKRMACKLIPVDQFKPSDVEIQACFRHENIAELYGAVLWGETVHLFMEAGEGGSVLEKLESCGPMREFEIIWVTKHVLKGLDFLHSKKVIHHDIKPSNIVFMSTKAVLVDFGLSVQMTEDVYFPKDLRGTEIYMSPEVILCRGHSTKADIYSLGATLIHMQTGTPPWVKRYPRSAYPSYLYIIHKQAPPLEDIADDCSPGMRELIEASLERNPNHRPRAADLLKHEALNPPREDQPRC

**Q.** `COCC(=O)NCCn1cc(CNc2cc(Cl)c3ncc(C#N)c(Nc4ccc(F)c(Cl)c4)c3c2)nn1` [Example 219, N-(2-(4-((8-chloro-4-(3-chloro-4-fluorophenylamino)-3-cyanoquinolin-6-ylamino)methyl)-1H-1,2,3-triazol-1-yl)ethyl)-2-methoxyacetamide] was tested. Which IC50 did it give?
**A.** 65 nM

**Q.** With `N#Cc1cnc2c(Br)cc(NCc3cn(CC(=O)N4CCOCC4)nn3)cc2c1Nc1ccc(F)c(Cl)c1` [Example 298, 8-Bromo-4-(3-chloro-4-fluoro-phenylamino)-6-{[1-(2-morpholin-4-yl-2-oxo-ethyl)-1H-[1,2,3]triazol-4-ylmethyl]-amino}-quinoline-3-carbonitrile] as the molecule, how does the IC50 read?
**A.** 38 nM

**Q.** `Cc1cc(CNc2ccc3ncc(C#N)c(Nc4ccc(F)c(Cl)c4)c3c2)n[nH]1` [Example 31, 4-(3-Chloro-4-fluoro-phenylamino)-6-[(5-methyl-1 H-pyrazol-3-ylmethyl)-amino]-quinoline-3-carbonitrile] was tested. Which IC50 did it give?
**A.** 110 nM

**Q.** Which IC50 does the source give for `C[S+]([O-])c1cc(NCc2cnc[nH]2)cc2c(Nc3ccc(F)c(Cl)c3)c(C#N)cnc12` (centres unmarked) [Example 284, 4-[(3-chloro-4-fluorophenyl)amino]-6-[(1H-imidazol-5-ylmethyl)amino]-8-(methylsulfinyl)quinoline-3-carbonitrile] here?
**A.** 20 nM

**Q.** For `CS(=O)(=O)c1nccc(CNc2cc(Cl)c3ncc(C#N)c(Nc4ccc(F)c(Cl)c4)c3c2)n1` [Example 282, 8-Chloro-4-[(3-chloro-4-fluorophenyl)amino]-6-({[2-(methylsulfonyl)pyrimidin-4-yl]methyl}amino)quinoline-3-carbonitrile], which IC50 is on record?
**A.** 23 nM

**Q.** Which IC50 does the source give for `N#Cc1cnc2c(Br)cc(NCc3[nH]cnc3-c3ccccc3)cc2c1Nc1ccc(F)c(Cl)c1` [Example 111, 8-bromo-4-(3-chloro-4-fluorophenylamino)-6-((4-phenyl-1H-imidazol-5-yl)methylamino)quinoline-3-carbonitrile] here?
**A.** 33 nM

**Q.** With `N#Cc1cnc2ccc(NCc3nccn3CC(=O)O)cc2c1Nc1ccc(F)c(Cl)c1` [Example 136, 2-(2-((4-(3-chloro-4-fluorophenylamino)-3-cyanoquinolin-6-ylamino)methyl)-1H-imidazol-1-yl)acetic acid] as the molecule, how does the IC50 read?
**A.** 64 nM

**Q.** `Cc1[nH]cnc1CNc1ccc2ncc(C#N)c(Nc3ccc(F)c(Cl)c3)c2c1` [Example 15, 4-(3-Chloro-4-fluoro-phenylamino)-6-[(5-methyl-3H-imidazol-4-ylmethyl)-amino]-quinoline-3-carbonitrile] was tested. Which IC50 did it give?
**A.** 15 nM

**Q.** With `N#Cc1cnc2c(Cl)cc(NCc3[nH]cnc3CCCO)cc2c1Nc1ccc(F)c(Cl)c1` [Example 205, 8-chloro-4-[(3-chloro-4-fluorophenyl)amino]-6-({[4-(3-hydroxypropyl)-1H-imidazol-5-yl]methyl}amino)quinoline-3-carbonitrile] as the molecule, how does the IC50 read?
**A.** 3.2 nM

**Q.** For `N#Cc1cnc2ccc(NCCN3CCOCC3)cc2c1NC1CCCCCC1` [Example 252, 4-(cycloheptylamino)-6-[(2-morpholin-4-ylethyl)amino]quinoline-3-carbonitrile], which IC50 is on record?
**A.** 6100 nM

**Q.** With `CN(C)CCNS(=O)(=O)c1ccc(CNc2ccc3ncc(C#N)c(Nc4ccc(F)c(Cl)c4)c3c2)cc1` [Example 123, 4-((4-(3-chloro-4-fluorophenylamino)-3-cyanoquinolin-6-ylamino)methyl)-N-(2-(dimethylamino)ethyl)benzenesulfonamide] as the molecule, how does the IC50 read?
**A.** 540 nM

**Q.** Which IC50 does the source give for `Cc1cc2ncc(C#N)c(Nc3ccc(F)c(Cl)c3)c2cc1NCCN1CCOCC1` [Example 227, 4-[(3-chloro-4-fluorophenyl)amino]-7-methyl-6-[(2-morpholin-4-ylethyl)amino]quinoline-3-carbonitrile] here?
**A.** > 40000 nM

**Q.** For `N#Cc1cnc2c(C(F)(F)F)cc(NCc3cccc[n+]3[O-])cc2c1Nc1ccc(F)c(Cl)c1` [Example 257, 4-[(3-chloro-4-fluorophenyl)amino]-6-{[(1-oxidopyridin-2-yl)methyl]amino}-8-(trifluoromethyl)quinoline-3-carbonitrile], which IC50 is on record?
**A.** 370 nM

Same assay, conditions: Table 2; Tpl2/Cot kinase, GST-MEK1 substrate, 50 uM ATP

**Q.** Which IC50 does the source give for `CN(C)CCCNC(=O)CNc1cc(Cl)c2ncc(C#N)c(Nc3ccc(F)c(Cl)c3)c2c1` [Example 603] here?
**A.** > 3000 nM

**Q.** `N#Cc1cnc2c(Cl)cc(NCc3cn(CCCN4CCCCC4)nn3)cc2c1Nc1ccc(F)c(Cl)c1` [Example 539] was tested. Which IC50 did it give?
**A.** 1.1 nM

**Q.** With `N#Cc1cnc2c(Cl)cc(NCc3cn(CCCN4CCCNCC4)nn3)cc2c1Nc1ccc(F)c(Cl)c1` [Example 595] as the molecule, how does the IC50 read?
**A.** 74 nM

**Q.** Which IC50 does the source give for `CN(C)CCNC(=O)CNc1cc(Cl)c2ncc(C#N)c(Nc3ccc(F)c(Cl)c3)c2c1` [Example 605] here?
**A.** 1600 nM

**Q.** How did the IC50 turn out when `CN(C)C(=O)CCn1cc(CNc2cc(Cl)c3ncc(C#N)c(Nc4ccc(F)c(Cl)c4)c3c2)nn1` [Example 614] was run?
**A.** 10 nM

**Q.** How did the IC50 turn out when `N#Cc1cnc2c(Br)cc(NCc3cn(C45CC6CC(CC(C6)C4)C5)nn3)cc2c1Nc1ccc(F)c(Cl)c1` [Example 479] was run?
**A.** 1700 nM

**Q.** For `N#Cc1cnc2ccc(NCc3ccn[nH]3)cc2c1NC1CCCC1` [Example 413], which IC50 is on record?
**A.** 1600 nM

**Q.** Which IC50 does the source give for `N#Cc1cnc2c(Cl)cc(NC3CCCC3n3cc(CCO)nn3)cc2c1Nc1ccc(F)c(Cl)c1` (centres unmarked) [Example 635] here?
**A.** 67 nM

**Q.** Which IC50 does the source give for `COCCCNC(=O)CNc1cc(Cl)c2ncc(C#N)c(Nc3ccc(F)c(Cl)c3)c2c1` [Example 606] here?
**A.** 230 nM

**Q.** For `CCc1nc(C)c(CNc2ccc3ncc(C#N)c(Nc4ccc(F)c(Cl)c4)c3c2)[nH]1` [Example 369], which IC50 is on record?
**A.** 640 nM

**Q.** Which IC50 does the source give for `CN(C)CCC(c1cccnc1)n1cc(CNc2cc(Cl)c3ncc(C#N)c(Nc4ccc(F)c(Cl)c4)c3c2)nn1` (centres unmarked) [Example 588] here?
**A.** 36 nM

**Q.** How did the IC50 turn out when `N#Cc1cnc2c(Cl)cc(NCc3cn(CC4CCCCC4)nn3)cc2c1Nc1ccc(F)c(Cl)c1` [Example 585] was run?
**A.** 790 nM

Same assay, conditions: Tpl2/Cot kinase, GST-MEK1 substrate, 50 uM ATP

**Q.** `N#Cc1cnc2c(Br)cc(NCc3cn(-c4ccncc4)cn3)cc2c1Nc1ccc(F)c(Cl)c1` [Example 725] was tested. Which IC50 did it give?
**A.** 23 nM

**Q.** Which IC50 does the source give for `N#Cc1cnc2c(Cl)cc(NCC(=O)NCCCN3CCOCC3)cc2c1Nc1ccc(F)c(Cl)c1` [Example 776] here?
**A.** > 3000 nM

**Q.** `CCNC(=O)N1CCC[C@H]1Cn1cc(CNc2cc(Cl)c3ncc(C#N)c(Nc4ccc(F)c(Cl)c4)c3c2)nn1` [Example 902] was tested. Which IC50 did it give?
**A.** 0.5 nM

**Q.** For `CN1CCC[C@@H]1Cn1cc(CNc2cc(Cl)c3ncc(C#N)c(Nc4ccc(F)c(Cl)c4)c3c2)nn1` [Example 891], which IC50 is on record?
**A.** 33 nM

**Q.** `CN1CCC(CNc2cc(Cl)c3ncc(C#N)c(Nc4ccc(F)c(Cl)c4)c3c2)CC1` [Example 849] was tested. Which IC50 did it give?
**A.** 1910 nM

**Q.** Which IC50 does the source give for `N#Cc1cnc2c(Cl)cc(NCCNS(=O)(=O)c3cccnc3)cc2c1Nc1ccc(F)c(Cl)c1` [Example 855] here?
**A.** > 3000 nM

**Q.** How did the IC50 turn out when `CNC(=O)NCCCn1cc(CNc2cc(Cl)c3ncc(C#N)c(Nc4ccc(F)c(Cl)c4)c3c2)nn1` [Example 909] was run?
**A.** 1 nM

**Q.** How did the IC50 turn out when `CC(C)N1CCC[C@@H]1Cn1cc(CNc2cc(Cl)c3ncc(C#N)c(Nc4ccc(F)c(Cl)c4)c3c2)nn1` [Example 893] was run?
**A.** 46 nM

**Q.** How did the IC50 turn out when `CC(=O)N1CCC[C@H]1CNc1cc(Cl)c2ncc(C#N)c(Nc3ccc(F)c(Cl)c3)c2c1` [Example 810] was run?
**A.** 54 nM

Same assay, conditions: Tpl2/Cot kinase, GST-MEK1 substrate, 50 uM ATP, 1 h at 30° C.; Table 2

**Q.** Which IC50 does the source give for `N#Cc1cnc2c(Cl)cc(NCC3CCCN(C(=O)CCl)C3)cc2c1Nc1ccc(F)c(Cl)c1` (centres unmarked) [Example 924] here?
**A.** 1320 nM

**Q.** How did the IC50 turn out when `CCN1CCN(CCn2cc(CNc3cc(Cl)c4ncc(C#N)c(Nc5ccc(F)c(Cl)c5)c4c3)nn2)CC1` [Example 964] was run?
**A.** 260 nM

**Q.** With `Cn1cc(CNc2cc(Cl)c3ncc(C#N)c(Nc4ccc(F)c(Cl)c4)c3c2)cn1` [Example 1026] as the molecule, how does the IC50 read?
**A.** 290 nM

**Q.** For `N#Cc1cnc2c(Cl)cc(NCc3cn(C4CCCN(CC(F)(F)C(F)(F)F)CC4)nn3)cc2c1Nc1ccc(F)c(Cl)c1` (centres unmarked) [Example 1012], which IC50 is on record?
**A.** > 3000 nM
